# Data taken from PubChem BioAssay (NCI).
#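 Each compound was tested at five concentrations against cells in 96-well plates for 48 hours. The concentration for full growth arrest is given as TGI.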
# Columns and labels:
# Assay in all cases: NCI anticancer screen, dose series, 48 h
# A498 renal = system: A498 renal
# ACHN renal = system: ACHN renal
# DMS 114 small cell lung = system: DMS 114 small cell lung
# LXFL 529 NSCLC = system: LXFL 529 NSCLC
# SF-539 CNS = system: SF-539 CNS
# OVCAR-5 ovarian = system: OVCAR-5 ovarian
# RXF 393 renal = system: RXF 393 renal
# HCT-116 colon = system: HCT-116 colon
# OVCAR-8 ovarian = system: OVCAR-8 ovarian
# SW-620 colon = system: SW-620 colon
# NCI-H23 lung = system: NCI-H23 lung
# HOP-62 NSCLC = system: HOP-62 NSCLC
# SK-MEL-2 melanoma = system: SK-MEL-2 melanoma
# DLD-1 colon = system: DLD-1 colon
# A549 NSCLC = system: A549 NSCLC
# MALME-3M melanoma = system: MALME-3M melanoma
# HOP-92 NSCLC = system: HOP-92 NSCLC
# SK-MEL-28 melanoma = system: SK-MEL-28 melanoma
# SK-MEL-5 melanoma = system: SK-MEL-5 melanoma
# UACC-62 melanoma = system: UACC-62 melanoma
# M19-MEL melanoma = system: M19-MEL melanoma
# DMS 273 small cell lung = system: DMS 273 small cell lung
# RPMI-8226 leukemia = system: RPMI-8226 leukemia
# HOP-18 NSCLC = system: HOP-18 NSCLC
# HCC-2998 colon = system: HCC-2998 colon
# COLO 205 colon = system: COLO 205 colon
# UACC-257 melanoma = system: UACC-257 melanoma
# OVCAR-4 ovarian = system: OVCAR-4 ovarian
# KM12 colon = system: KM12 colon
# UO-31 renal = system: UO-31 renal
# KM20L2 colon = system: KM20L2 colon
# LOX IMVI melanoma = system: LOX IMVI melanoma
# HCT-15 colon = system: HCT-15 colon
# OVCAR-3 ovarian = system: OVCAR-3 ovarian
# HT29 colon = system: HT29 colon
# SR leukemia = system: SR leukemia
# NCI-H522 lung = system: NCI-H522 lung
# K-562 leukemia = system: K-562 leukemia
# 786-0 renal = system: 786-0 renal
# U251 CNS = system: U251 CNS
# SF-295 CNS = system: SF-295 CNS
# SNB-75 CNS = system: SNB-75 CNS
# TK-10 renal = system: TK-10 renal
# SNB-19 CNS = system: SNB-19 CNS
# CCRF-CEM leukemia = system: CCRF-CEM leukemia
# CAKI-1 renal = system: CAKI-1 renal
# SF-268 CNS = system: SF-268 CNS
# SNB-78 CNS = system: SNB-78 CNS
# MOLT-4 leukemia = system: MOLT-4 leukemia
# IGROV1 ovarian = system: IGROV1 ovarian
# SK-OV-3 ovarian = system: SK-OV-3 ovarian
# M14 melanoma = system: M14 melanoma
# NCI-H460 lung = system: NCI-H460 lung
# SN12C renal = system: SN12C renal
smiles,measurement,setting,value
CCCCCCCC/C=C/CCCCCCCC(=O)N(O)C1CC(n2cc(C)c(=O)[nH]c2=O)OC1CO (centres undefined),TGI,A498 renal,32.2 µM
same,TGI,ACHN renal,18 µM
same,TGI,DMS 114 small cell lung,10.9 µM
same,TGI,LXFL 529 NSCLC,22.4 µM
same,TGI,SF-539 CNS,24.2 µM
same,TGI,OVCAR-5 ovarian,22.3 µM
same,TGI,RXF 393 renal,16.2 µM
same,TGI,HCT-116 colon,20.6 µM
same,TGI,OVCAR-8 ovarian,24.9 µM
same,TGI,SW-620 colon,23.8 µM
same,TGI,NCI-H23 lung,23.2 µM
same,TGI,HOP-62 NSCLC,18.1 µM
same,TGI,SK-MEL-2 melanoma,26.9 µM
same,TGI,DLD-1 colon,18.4 µM
same,TGI,A549 NSCLC,33.9 µM
same,TGI,MALME-3M melanoma,22 µM
same,TGI,HOP-92 NSCLC,28.7 µM
same,TGI,SK-MEL-28 melanoma,19.4 µM
same,TGI,SK-MEL-5 melanoma,19.5 µM
same,TGI,UACC-62 melanoma,11 µM
same,TGI,M19-MEL melanoma,17.7 µM
same,TGI,DMS 273 small cell lung,16.1 µM
same,TGI,RPMI-8226 leukemia,50.1 µM
same,TGI,HOP-18 NSCLC,13.9 µM
same,TGI,HCC-2998 colon,22.4 µM
same,TGI,COLO 205 colon,16.7 µM
same,TGI,UACC-257 melanoma,26.7 µM
same,TGI,OVCAR-4 ovarian,25 µM
same,TGI,KM12 colon,23.3 µM
same,TGI,UO-31 renal,14.4 µM
same,TGI,KM20L2 colon,16.4 µM
same,TGI,LOX IMVI melanoma,17.3 µM
same,TGI,HCT-15 colon,16.2 µM
same,TGI,OVCAR-3 ovarian,20.1 µM
same,TGI,HT29 colon,22.4 µM
same,TGI,SR leukemia,20.5 µM
same,TGI,NCI-H522 lung,20.2 µM
same,TGI,K-562 leukemia,21 µM
same,TGI,786-0 renal,16 µM
same,TGI,U251 CNS,17 µM
same,TGI,SF-295 CNS,21.4 µM
same,TGI,SNB-75 CNS,29.8 µM
same,TGI,TK-10 renal,22.7 µM
same,TGI,SNB-19 CNS,25.5 µM
same,TGI,CCRF-CEM leukemia,20.4 µM
same,TGI,CAKI-1 renal,21.6 µM
same,TGI,SF-268 CNS,26.3 µM
same,TGI,SNB-78 CNS,45.8 µM
same,TGI,MOLT-4 leukemia,19.6 µM
same,TGI,IGROV1 ovarian,17.6 µM
same,TGI,SK-OV-3 ovarian,21.9 µM
same,TGI,M14 melanoma,10.1 µM
same,TGI,NCI-H460 lung,13.6 µM
same,TGI,SN12C renal,22.8 µM
